According to patent US11242335B2, “Fluorine-substituted indazole compounds and uses thereof” (SUNSHINE LAKE PHARMA CO., LTD., priority 2017, dated 2022):
pEC50: −log10 of the molar value.

Biological target: T1, soluble guanylate cyclase (sGC) expressed by CHO-K1-Rat sGC monoclonal cell line (Rattus norvegicus, UniProt P19686+P20595)
T1 construct: expressed in transfected cells; host or cells: CHO-K1
T1 sequence (P19686 1-690): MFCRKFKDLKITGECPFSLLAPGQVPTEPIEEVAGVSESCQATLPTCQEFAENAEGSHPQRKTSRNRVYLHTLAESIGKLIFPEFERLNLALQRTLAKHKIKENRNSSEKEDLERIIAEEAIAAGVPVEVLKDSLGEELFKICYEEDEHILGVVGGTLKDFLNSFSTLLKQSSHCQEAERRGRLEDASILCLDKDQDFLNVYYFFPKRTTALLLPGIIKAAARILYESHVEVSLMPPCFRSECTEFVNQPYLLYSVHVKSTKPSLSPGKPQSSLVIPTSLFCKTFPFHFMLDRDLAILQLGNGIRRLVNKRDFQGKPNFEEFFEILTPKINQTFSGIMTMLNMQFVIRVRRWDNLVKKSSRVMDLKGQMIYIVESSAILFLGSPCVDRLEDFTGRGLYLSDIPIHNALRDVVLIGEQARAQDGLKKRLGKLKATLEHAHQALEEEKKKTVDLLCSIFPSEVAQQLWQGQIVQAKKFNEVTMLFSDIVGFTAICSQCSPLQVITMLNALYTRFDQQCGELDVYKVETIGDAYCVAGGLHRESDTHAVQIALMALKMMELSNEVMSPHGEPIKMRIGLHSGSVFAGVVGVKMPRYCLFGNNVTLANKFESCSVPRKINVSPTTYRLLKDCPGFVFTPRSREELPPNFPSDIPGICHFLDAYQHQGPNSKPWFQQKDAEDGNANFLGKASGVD
T1 sequence (P20595 1-619): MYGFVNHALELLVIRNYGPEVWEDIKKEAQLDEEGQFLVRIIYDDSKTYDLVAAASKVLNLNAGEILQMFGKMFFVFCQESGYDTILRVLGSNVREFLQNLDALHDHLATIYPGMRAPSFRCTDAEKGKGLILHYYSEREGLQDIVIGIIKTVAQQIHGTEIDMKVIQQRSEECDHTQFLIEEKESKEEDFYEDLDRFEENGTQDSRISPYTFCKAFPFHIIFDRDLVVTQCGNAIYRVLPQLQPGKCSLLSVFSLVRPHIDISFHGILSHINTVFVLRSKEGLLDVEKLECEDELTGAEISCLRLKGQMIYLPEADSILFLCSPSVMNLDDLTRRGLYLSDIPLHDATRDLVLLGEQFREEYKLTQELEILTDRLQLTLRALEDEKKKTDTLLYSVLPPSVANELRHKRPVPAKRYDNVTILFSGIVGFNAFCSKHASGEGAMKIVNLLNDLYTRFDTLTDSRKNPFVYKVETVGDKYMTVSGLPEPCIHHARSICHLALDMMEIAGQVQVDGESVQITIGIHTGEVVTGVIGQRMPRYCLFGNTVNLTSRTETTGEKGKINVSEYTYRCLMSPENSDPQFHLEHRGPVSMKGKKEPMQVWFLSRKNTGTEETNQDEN
Assay: Effect on recombinant guanylate cyclase reporter cell line (CHO-K1-Rat sGC, Cisbio cGMP HTRF)
Format: cell-based
Conditions: activating soluble guanylate cyclase
Description: Transfection of Soluble Guanylate Cyclase (sGC) gene into CHO-K1 cells and selection of cells with stably and highly expressed sGC: Rat sGCα1 and Rat sGCβ1 Genes were synthesized, and then pcDNA3.1(+)-rat sGCα1 and pcDNA3.1/Hygro (+)-rat sGCβ1 plasmid were constructed; the plasmid was co-transfected into CHO-K1 cells, and a positive clone cell line stably expressing CHO-K1-Rat sGC was selected using the Cisbio cGMP HTRF assay kit.
The activity of the compound on the CHO-K1-Rat sGC monoclonal cell line was determined: The CHO-K1-Rat sGC monoclonal cell line was cultured, and used for test operation at degree of fusion of about 70% to 90%. The cells were resuspended in complete medium after TrypLE digestion; the cells were inoculated in a 384-well (low volume tissues culture treated) cell culture plate at a seeding density of 7500/well in 25 μL of complete medium and incubated at 37° C. in 5% CO2 atmosphere for 20 hours; the test compounds were dissolved and dilute with DMSO to give 10 concentration gradients (2× working concentration); 384-well cell culture plates were centrifugated (200 g) for 3 seconds by inversion at RT, medium was removed; The test compounds in each different concentration gradient and corresponding reagent were added into each cell well according to the detection process of Cisbio cGMP HTRF assay kit. The data were collected with Envision HTRF detector and the EC50 value of each compound in activating soluble guanylate cyclase was calculated.

SMILES | pEC50
Nc1nc(-c2nn(Cc3ccccc3F)c3cc(F)ccc23)nc(N)c1NC1CCOC1 (stereo not drawn) [Example 9, 2-(6-fluoro-1-(2-fluorobenzyl)-1H-indazol-3-yl)-N^5-(tetrahydrofuran-3-yl) pyrimidine-4,5,6-triamine] | 6.17
Nc1nc(-c2nn(Cc3ccccc3F)c3c(F)cccc23)nc(N)c1NC1CCOC1 (stereo not drawn) [Example 12, 2-(7-fluoro-1-(2-fluorobenzyl)-1H-indazol-3-yl)-N^5-(tetrahydrofuran-3-yl)pyrimidine-4,5,6-triamine] | 6.92
Nc1nc(-c2nn(Cc3ccccc3F)c3c(F)cccc23)nc(N)c1N1CCOCC1 [Example 14, 2-(7-fluoro-1-(2-fluorobenzyl)-1H-indazol-3-yl)-5-morpholinopyrimidine-4,6-diamine] | 7.21
Nc1nc(-c2nn(Cc3ccccc3F)c3c(F)cccc23)nc(N)c1NC(=O)C1CCCCO1 (stereo not drawn) [Example 17, N-(4,6-diamino-2-(7-fluoro-1-(2-fluorobenzyl)-1H-indazol-3-yl)pyrimidin-5-yl)tetrahydro-2H-pyran-2-carboxamide] | 6.38
CC(C)(O)CNc1c(N)nc(-c2nn(Cc3ccccc3F)c3c(F)cccc23)nc1N [Example 26, 1-((4,6-diamino-2-(7-fluoro-1-(2-fluorobenzyl)-1H-indazol-3-yl)pyrimidin-5-yl)amino)-2-methylpropan-2-ol] | 7.00
CC(Nc1c(N)nc(-c2nn(Cc3ccccc3F)c3c(F)cccc23)nc1N)C1CCOCC1 (stereo not drawn) [Example 28, 2-(7-fluoro-1-(2-fluorobenzyl)-1H-indazol-3-yl)-N^5-(1-(tetrahydro-2H-pyran-4-yl)ethyl)pyrimidine-4,5,6-triamine] | 7.03
Nc1nc(-c2nn(Cc3ccccc3F)c3c(F)cccc23)ncc1C(=O)NC1CC1 [Example 31, 4-amino-N-cyclopropyl-2-(7-fluoro-1-(2-fluorobenzyl)-1H-indazol-3-yl) pyrimidine-5-carboxamide] | 7.46
Nc1nc(-c2nn(Cc3ccccc3F)c3c(F)cccc23)nc(N)c1C(=O)O [Example 42, 4,6-diamino-2-(7-fluoro-1-(2-fluorobenzyl)-1H-indazol-3-yl)pyrimidine-5-carboxylic acid] | 6.12
Nc1nc(-c2nn(Cc3ccccc3F)c3c(F)cccc23)nc(N)c1C(=O)NC1CC1 [Example 44, 4,6-diamino-N-cyclopropyl-2-(7-fluoro-1-(2-fluorobenzyl)-1H-indazol-3-yl) pyrimidine-5-carboxamide] | 6.47
CN(C)C(=O)c1cnc(-c2nn(Cc3ccccc3F)c3c(F)cccc23)nc1N [Example 45, 4-amino-2-(7-fluoro-1-(2-fluorobenzyl)-1H-indazol-3-yl)-N,N-dimethyl pyrimidine-5-carboxamide] | 6.80
Nc1nc(-c2nn(Cc3ccccc3F)c3c(F)cccc23)ncc1C(=O)N1CCOCC1 [Example 46, (4-amino-2-(7-fluoro-1-(2-fluorobenzyl)-1H-indazol-3-yl)pyrimidin-5-yl) (morpholino)methanone] | 6.70
Nc1nc(-c2nn(Cc3ccccc3F)c3c(F)cccc23)ncc1C(=O)N1CCCC1 [Example 47, (4-amino-2-(7-fluoro-1-(2-fluorobenzyl)-1H-indazol-3-yl)pyrimidin-5-yl) (pyrrolidin-1-yl)methanone] | 6.92
Nc1nc(-c2nn(Cc3ccccc3F)c3c(F)cccc23)ncc1C(=O)N1CCS(=O)(=O)CC1 [Example 51, (4-amino-2-(7-fluoro-1-(2-fluorobenzyl)-1H-indazol-3-yl)pyrimidin-5-yl) (1,1-dioxidothiomorpholino)methanone] | 6.38
Nc1nc(-c2nn(Cc3ccccc3F)c3c(F)cccc23)ncc1C(=O)N1CC(O)C1 [Example 54, (4-amino-2-(7-fluoro-1-(2-fluorobenzyl)-1H-indazol-3-yl)pyrimidin-5-yl) (3-hydroxyazetidin-1-yl)methanone] | 6.85
CNC(=O)c1cnc(-c2nn(Cc3ccccc3F)c3c(F)cccc23)nc1 [Example 56, 2-(7-fluoro-1-(2-fluorobenzyl)-1H-indazol-3-yl)-N-methylpyrimidine-5-carboxamide] | 6.47
OCCCNc1nc(-c2nn(Cc3ccccc3F)c3c(F)cccc23)ncc1F [Example 59, 3-((5-fluoro-2-(7-fluoro-1-(2-fluorobenzyl)-1H-indazol-3-yl)pyrimidin-4-yl)amino)propan-1-ol] | 7.24
OCCNc1nc(-c2nn(Cc3ccccc3F)c3c(F)cccc23)ncc1F [Example 60, 2-((5-fluoro-2-(7-fluoro-1-(2-fluorobenzyl)-1H-indazol-3-yl)pyrimidin-4-yl)amino)ethanol] | 6.92
OCCN1CCN(c2nc(-c3nn(Cc4ccccc4F)c4c(F)cccc34)ncc2F)CC1 [Example 62, 2-(4-(5-fluoro-2-(7-fluoro-1-(2-fluorobenzyl)-1H-indazol-3-yl)pyrimidin-4-yl)piperazin-1-yl)ethanol] | 7.12

Further compounds by rising pEC50, results first:

pEC50 | SMILES
6.07 | Oc1nc(-c2nn(Cc3ccccc3F)c3c(F)cccc23)ncc1F [Example 25, 5-fluoro-2-(7-fluoro-1-(2-fluorobenzyl)-1H-indazol-3-yl)pyrimidin-4-ol]
6.09 | Nc1nc(-c2nn(Cc3ccccc3F)c3c(F)cccc23)ncc1C(=O)O [Example 30, 4-amino-2-(7-fluoro-1-(2-fluorobenzyl)-1H-indazol-3-yl)pyrimidine-5-carboxylic acid]
6.09 | COC(=O)N(C)c1c(N)nc(-c2nn(Cc3cncnc3)c3c(F)cccc23)nc1N [Example 34, methyl (4,6-diamino-2-(7-fluoro-1-(pyrimidin-5-ylmethyl)-1H-indazol-3-yl)pyrimidin-5-yl)(methyl)carbamate]
6.16 | Nc1nc(-c2nn(Cc3ccccc3F)c3c(F)cccc23)nc(N)c1NC(=O)C1CCCO1 (stereo not drawn) [Example 16, N-(4,6-diamino-2-(7-fluoro-1-(2-fluorobenzyl)-1H-indazol-3-yl)pyrimidin-5-yl)tetrahydrofuran-2-carboxamide]
6.41 | CN1CCN(C(=O)c2cnc(-c3nn(Cc4ccccc4F)c4c(F)cccc34)nc2N)CC1 [Example 53, (4-amino-2-(7-fluoro-1-(2-fluorobenzyl)-1H-indazol-3-yl)pyrimidin-5-yl) (4-methylpiperazin-1-yl)methanone]
6.57 | Nc1nc(-c2nn(Cc3ccccc3F)c3c(F)cccc23)ncc1C(=O)NCCO [Example 49, 4-amino-2-(7-fluoro-1-(2-fluorobenzyl)-1H-indazol-3-yl)-N-(2-hydroxyethyl)pyrimidine-5-carboxamide]
6.96 | Nc1nc(-c2nn(Cc3ccccc3F)c3c(F)cccc23)ncc1C(=O)N1CCC(F)(F)CC1 [Example 52, (4-amino-2-(7-fluoro-1-(2-fluorobenzyl)-1H-indazol-3-yl)pyrimidin-5-yl) (4,4-difluoropiperidin-1-yl)methanone]
7.05 | CNC(=O)c1cnc(-c2nn(Cc3ccccc3F)c3c(F)cccc23)nc1N [Example 32, 4-amino-2-(7-fluoro-1-(2-fluorobenzyl)-1H-indazol-3-yl)-N-methyl pyrimidine-5-carboxamide]
7.10 | O=C(NC1CC1)c1cnc(-c2nn(Cc3ccccc3F)c3c(F)cccc23)nc1 [Example 57, N-cyclopropyl-2-(7-fluoro-1-(2-fluorobenzyl)-1H-indazol-3-yl)pyrimidine-5-carboxamide]
